Experiments:
SARS-CoV-2 WA strain = assay: Inhibition of SARS-CoV-2 in infected Vero E6 cells (MTT, OD590) with ZIP delta synergy score; type: cell-based; settings: Severe acute respiratory syndrome coronavirus 2, Vero C1008, 72 h, read-out: Inhibition rate
SARS-CoV-2 = settings: model cell lines; cited from earlier work

| SMILES | inhibition at 0.2 µM (SARS-CoV-2 WA strain; Comparative group 2: MTX 0.2 μM, remdesivir 0 μM, Vero E6 cells, 3 days) [%] | inhibition of SARS-CoV-2 replication (SARS-CoV-2) | inhibition at 3 µM (SARS-CoV-2 WA strain) [%] |
| --- | --- | --- | --- |
| CN(Cc1cnc2nc(N)nc(N)c2n1)c1ccc(C(=O)N[C@@H](CCC(=O)O)C(=O)O)cc1 [MTX, methotrexate] | 11.7 | dose-dependent, potent inhibition |  |
| CCC(CC)COC(=O)[C@H](C)N[P@](=O)(OC[C@H]1O[C@@](C#N)(c2ccc3c(N)ncnn23)[C@H](O)[C@@H]1O)Oc1ccccc1 [remdesivir] |  |  | 4.57 |
